Measured values reported in EP1126023A1, “METHOD FOR INDUCING CELLULAR IMMUNITY AND CELLS WITH INDUCED CELLULAR IMMUNITY” (MITSUBISHI CHEMICAL CORPORATION, priority 1998, dated 2000).

System: CD8-positive HLA-A2402-restrictive CTL clones specific for the ErbB2 p63-71 peptide
Assay: Stimulating activity of treated dendritic cells on proliferation of CTL clone
Format: cell-based, human
Settings: HLA-A2402 dendritic cells treated at protein concentration of 100 µg/ml for 3 hours or peptide-pulsed; compared to the non-treated dendritic cells; Fig. 3
Description: The dendritic cells, prepared from healthy human peripheral blood monocytes having HLA-A2402 as described above, were cultured with the CHP-ErbB2 suspension, the ErbB2 protein alone, the CHP-CAB suspension, or the CAB protein alone each at a protein concentration of 100 µ g/ml for 3 hours. The cells were washed and then further cultured for 15 hours.
By using these dendritic cells and the ErbB2 p63-71 peptide-pulsed dendritic cells derived from the same individual as stimulating cells, their abilities of stimulation were examined on the aforementioned CD8-positive HLA-A2402-restrictive CTL clones specific for the ErbB2 p63-71 peptide.

p63-71 peptide: peptide having the 63-71 amino acid sequence of HER2, positive control (TYLPTNASL)
stimulation and proliferation of the CTL clone: significantly stimulate the CTL clone and induce proliferation
